Laboratory results as given in the Deep4Chem optical property database.
Blank lines part the entries; values can stand above or below the molecule they belong to.

Experiment: solvent given as SMILES

emission maximum (in c1cc(-c2cccc(-n3c4ccccc4c4ccccc43)c2)cc(-n2c3ccccc3c3ccccc32)c1): 610 nm
SMILES: N#Cc1nc(-c2ccc(N3c4ccccc4Oc4ccccc43)cc2)c(-c2ccc(N3c4ccccc4Oc4ccccc43)cc2)nc1C#N

SMILES: O=C1c2ccccc2S(=O)(=O)c2ccc(-n3c4ccccc4c4ccccc43)cc21
emission maximum (in C1CCOC1): 576 nm
emission maximum (in CCCCCC): 485 nm
emission maximum (in Cc1ccccc1): 535.5 nm
emission maximum (in ClC(Cl)Cl): 595.5 nm
emission maximum (in ClCCl): 609.5 nm

emission maximum (in CCO): 445 nm
SMILES: O=c1c2cc(F)c(O)cc2oc2cc(N3CCCCC3)c(F)cc12

emission maximum (in C1CCCCC1): 392 nm
emission maximum (in C1COCCO1): 399 nm
emission maximum (in CC#N): 420 nm
emission maximum (in CCO): 442 nm
emission maximum (in CCOC(C)=O): 403 nm
emission maximum (in CN(C)C=O): 417 nm
emission maximum (in CO): 452 nm
emission maximum (in c1ccccc1): 398 nm
SMILES: Cc1cc2ccc(-c3cccc4cccc(-c5ccc6cc(C)c(=O)oc6c5)c34)cc2oc1=O

emission maximum (in ClCCl): 445 nm
SMILES: CCOC(=O)c1c(-c2cc3cc(OC)ccc3oc2=O)nn(-c2cccc(Cl)c2)c1C(=O)OCC

emission maximum (in ClC(Cl)Cl): 651 nm
SMILES: CCCCCCCCN1C(=O)c2ccc3c4c(-c5ccc(-n6c7ccccc7c7ccccc76)cc5)cc5c6c(ccc(c7c(-c8ccc(-n9c%10ccccc%10c%10ccccc%109)cc8)cc(c2c37)C1=O)c64)C(=O)N(CCCCCCCC)C5=O

SMILES: CCOC(=O)CN1C(=O)C2=C(c3ccc(C#N)cc3)N(CC(=O)OCC)C(=O)C2=C1c1ccc(C#N)cc1
emission maximum (in CC#N): 549 nm
emission maximum (in CS(C)=O): 557 nm
emission maximum (in Cc1ccccc1): 558 nm

emission maximum (in CC#N): 470 nm
emission maximum (in CO): 463 nm
emission maximum (in O): 475 nm
SMILES: CN(C)CCCN1c2ccccc2Sc2ccc(C(F)(F)F)cc21

emission maximum (in ClCCl): 450 nm
SMILES: CCCCn1c2ccccc2c2cc(C#Cc3ccc4ccc5cccc6ccc3c4c56)ccc21

emission maximum (in C1CCOC1): 513 nm
SMILES: COc1ccc(-c2cc3c(s2)-c2sc(-c4ccc(OC)cc4)cc2P(c2ccccc2)(c2ccccc2)=[O+][B-]3(c2c(C)cc(C)cc2C)c2c(C)cc(C)cc2C)cc1

SMILES: CN(C)c1ccc(/C=C2\OC(=O)c3cc(N)ccc32)cc1
emission maximum (in CC#N): 561.8 nm
emission maximum (in CC(C)=O): 537.06 nm
emission maximum (in CC(C)CO): 542.89 nm
emission maximum (in CC(C)O): 550.06 nm
emission maximum (in CCCO): 559.91 nm
emission maximum (in CCO): 568.18 nm
emission maximum (in CCOC(C)=O): 520.83 nm
emission maximum (in CCOCC): 444.84 nm
emission maximum (in CO): 568.18 nm

emission maximum (in ClCCl): 447 nm
SMILES: CCCCCCn1c2ccccc2c2cc(-c3ccc(-c4cc(-c5ccccn5)nc(-c5ccccn5)c4)cc3)ccc21

emission maximum (in C1CCOC1): 426 nm
emission maximum (in CO): 441 nm
SMILES: CCOC(=O)C1=CN(c2ccccc2)C=C(C(=O)OCC)C1

emission maximum (in ClCCl): 434 nm
SMILES: C(S/C=C/c1ccc(-c2ccc(/C=C/SC=C3CCCCCC3)cc2)cc1)=C1CCCCCC1

emission maximum (in ClC(Cl)Cl): 583 nm
SMILES: Cc1cc2c(o1)=CC1=Cc3cc4oc(C)cc4n3[B-](F)(F)[N+]=21

SMILES: COc1ccc(-c2n[n+]3c(s2)N=C(c2ccccc2)O[B-]3(F)F)cc1
emission maximum (in Cc1ccccc1): 436 nm

emission maximum (in ClCCl): 420 nm
SMILES: COc1ccc(-c2ccc(C(=O)NC(C)(C)C)c3c2ccc2c4ccccc4c4ccccc4c23)cc1

emission maximum (in ClCCl): 484 nm
SMILES: CCN(CC)c1ccc2cc(-c3ccc(-c4ccc(-c5cc6ccc(N(CC)CC)cc6oc5=O)cc4)cc3)c(=O)oc2c1

emission maximum (in CC#N): 403 nm
emission maximum (in CCCCCC): 361 nm
emission maximum (in CO): 431 nm
emission maximum (in ClC(Cl)Cl): 383 nm
SMILES: c1ccc2c(c1)cc(-c1cc(-c3nccs3)nc(-c3nccs3)c1)c1ccccc12

emission maximum (in ClCCl): 413 nm
SMILES: CCCCc1cc2c3c(c1)-c1ccccc1B(c1c(C)cc(C)cc1C)N3B(c1c(C)cc(C)cc1C)c1ccccc1-2

emission maximum (in ClC(Cl)Cl): 704 nm
SMILES: Cc1ccc(C2=C(/C=C/C(=O)OC3CC[C@@]4(C)C(=CC[C@H]5[C@@H]6CC[C@H]([C@H](C)CCCC(C)C)[C@@]6(C)CC[C@@H]54)C3)C(c3ccc(C)cc3)=[N+]3C2=Nc2c(-c4ccc(C)cc4)c(Br)c(-c4ccc(C)cc4)n2[B-]3(F)F)cc1 (some centres not stated)

SMILES: CCCCC1(c2ccccc2)Nc2c(-c3ccc(OC)cc3)ccc(-c3ccc(OC)cc3)c2N=C1c1ccccc1 (configuration not stated)
emission maximum (in C1CCOC1): 547 nm
emission maximum (in CC#N): 556 nm
emission maximum (in CCCCCC): 517 nm
emission maximum (in CN(C)C=O): 568 nm
emission maximum (in Cc1ccccc1): 525 nm
emission maximum (in ClC(Cl)Cl): 537 nm

emission maximum (in CC#N): 308 nm
SMILES: Cc1cc(=O)[nH]c(=O)[nH]1

SMILES: N#CC(C#N)=C(/C=C/c1cc2c3c(c1)CCCN3CCC2)c1ccc2c3c(cccc13)CC2
emission maximum (in C1CCOC1): 602 nm
emission maximum (in CC#N): 622 nm
emission maximum (in CC(C)=O): 619 nm
emission maximum (in CCOC(C)=O): 600 nm
emission maximum (in CN(C)C=O): 629 nm
emission maximum (in CO): 613 nm
emission maximum (in Cc1ccccc1): 580 nm
emission maximum (in ClC(Cl)Cl): 599 nm

SMILES: CC1(C)c2ccccc2N(c2ccc(-c3ccc(C#N)cn3)cc2)c2ccccc21
emission maximum (in Cc1ccccc1): 504 nm
emission maximum (in N#Cc1ccc2c(c1)c1ccccc1n2-c1cccc(-n2c3ccccc3c3ccccc32)c1): 495 nm

emission maximum (in ClC(Cl)Cl): 479 nm
SMILES: COc1ccc(-c2nc(-c3ccc(OC)cc3)n3ccccc23)cc1

SMILES: Cc1ccc([B-]2(c3ccc(C)cc3)n3nc(C(F)(F)F)cc3-c3c4ccccc4cc[n+]32)cc1
emission maximum (in C1CCCCC1): 407 nm
emission maximum (in Cc1ccccc1): 407 nm
emission maximum (in ClCCl): 407 nm

emission maximum (in C1CCOC1): 620 nm
SMILES: C[Si](C)(C)c1ccc(-c2ccc(-c3ccc(-c4ccc(-c5ccc([Si](C)(C)C)cc5)s4)c4nsnc34)s2)cc1

SMILES: c1ccc(Cn2c3sccc3c3c4nsnc4c4c5ccsc5n(Cc5ccccc5)c4c32)cc1
emission maximum (in Cc1ccccc1): 508 nm
emission maximum (in ClCCl): 541 nm

SMILES: C(#Cc1cccc(C#Cc2ccc(-n3c4ccccc4c4ccccc43)cc2)c1)c1ccc(-n2c3ccccc3c3ccccc32)cc1
emission maximum (in CC#N): 425 nm
emission maximum (in CCCCC): 366 nm
emission maximum (in CO): 412 nm
emission maximum (in Cc1ccccc1): 374 nm
emission maximum (in ClC(Cl)Cl): 368 nm
emission maximum (in ClCCl): 394 nm

SMILES: COc1cccc(OC)c1C1=C2C(C)=CC(C)=[N+]2[B-](F)(F)n2c(C)cc(C)c21
emission maximum (in C1CCOC1): 520 nm
emission maximum (in CC#N): 513 nm
emission maximum (in CC(=O)C(C)(C)C): 520 nm
emission maximum (in CC(C)=O): 516 nm
emission maximum (in CCCCCC): 519 nm
emission maximum (in CCOC(C)=O): 520 nm
emission maximum (in CO): 518 nm

emission maximum (in ClCCl): 338 nm
SMILES: Cc1cc2cc(C)c3c4ccccc4[nH]c3c2o1

emission maximum (in ClC(Cl)Cl): 473 nm
SMILES: CN(C)c1ccc(-c2cc(-c3cccs3)nc(-c3ccccc3)n2)cc1

SMILES: CN(C)c1ccc(/C=C/c2ccc(C#N)cc2)cc1
emission maximum (in C1CCOC1): 499 nm
emission maximum (in CC#N): 530 nm
emission maximum (in CCCC#N): 522 nm
emission maximum (in CCCCCC): 415 nm
emission maximum (in CCCCOCCCC): 453 nm
emission maximum (in CCO): 524 nm
emission maximum (in CCOCC): 475 nm

emission maximum (in ClCCl): 570 nm
SMILES: Cc1c2ccc(=[N+]3CCCCC3)cc-2oc2cc(N3CCCCC3)ccc12

emission maximum (in C1CCOC1): 328 nm
emission maximum (in C1COCCO1): 329 nm
emission maximum (in CC#N): 330 nm
emission maximum (in CC(C)O): 332 nm
emission maximum (in CCO): 334 nm
emission maximum (in CO): 335 nm
emission maximum (in CS(C)=O): 335 nm
emission maximum (in O): 350 nm
emission maximum (in OCC(F)(F)F): 339 nm
SMILES: N#Cc1cc2ccccc2[nH]1

emission maximum (in ClCCl): 520 nm
SMILES: CCCCCCCCCCCCN1C(=O)c2c(c3ccc4cc(-c5ccc(C#N)cc5)c(OC)cc4c3c3c2ccc2cc(-c4ccc(C#N)cc4)c(OC)cc23)C1=O

SMILES: CC1(C)c2ccccc2N(c2ccc(-c3nnc(-c4ccc(N5c6ccccc6C(C)(C)c6ccccc65)cc4)o3)cc2)c2ccccc21
emission maximum (in Cc1ccccc1): 461 nm
emission maximum (in O=P(c1ccccc1)(c1ccccc1)c1ccccc1Oc1ccccc1P(=O)(c1ccccc1)c1ccccc1): 472 nm

emission maximum (in CCOC(C)=O): 441 nm
SMILES: CCn1c(-c2ccc(-c3ccc4c(c3)C(c3ccccc3)(c3ccccc3)c3ccccc3-4)cc2)c(-c2ccc3ccccc3c2)c(-c2ccc3ccccc3c2)c1-c1ccc(-c2ccc3c(c2)C(c2ccccc2)(c2ccccc2)c2ccccc2-3)cc1

emission maximum (in ClCCl): 431 nm
SMILES: COC(=O)C1=C(C(=O)OC)C2(c3ccccc3-c3ccccc32)[C@@H](c2ccccc2)C=C2c3cc(OC)c(OC)cc3CCN21

emission maximum (in C1COCCO1): 368 nm
emission maximum (in CC#N): 364 nm
emission maximum (in CCCCCC): 370 nm
emission maximum (in CCCCO): 371 nm
emission maximum (in CCO): 372 nm
emission maximum (in CCOC(C)=O): 368 nm
emission maximum (in CO): 369 nm
emission maximum (in ClC(Cl)Cl): 372 nm
emission maximum (in ClCCl): 369 nm
emission maximum (in c1ccccc1): 371 nm
SMILES: COc1cccc(-n2c(-c3ccc(O)cc3)nc(C)c2C)c1

emission maximum (in ClCCl): 455 nm
SMILES: ClP1(Cl)=N[P@@](Cl)(Oc2ccc3ccc4cccc5ccc2c3c45)=N[P@@](Cl)(Oc2ccc3ccc4cccc5ccc2c3c45)=N1

emission maximum (in ClCCl): 365 nm
SMILES: Cc1cc2c3ccccc3sc2c2[nH]c3ccccc3c12

emission maximum (in C1CCOC1): 563 nm
emission maximum (in CC#N): 632 nm
emission maximum (in CCCCCC): 491 nm
SMILES: COCCN1C(=O)/C(=C/c2cccc(N(C)C)c2)N=C1C

emission maximum (in ClCCl): 401 nm
SMILES: FC(F)(F)c1ccc(C2=Cc3ccccc3[Si]2(c2ccccc2)c2ccccc2)cc1

emission maximum (in CC#N): 496 nm
emission maximum (in CO): 509 nm
SMILES: O=C1c2ccccc2-c2c(-c3ccc([N+](=O)[O-])cc3)c(-c3ccc([N+](=O)[O-])cc3)c(-c3ccccc3)c3cccc1c23

emission maximum (in ClC(Cl)Cl): 471 nm
SMILES: Cc1ccc(C2=Cc3c4ccccc4cc[n+]3[B-](F)(F)O2)cc1

SMILES: c1ccc(N(c2ccccc2)c2c3ccccc3c(N(c3ccccc3)c3ccccc3)c3ccccc23)cc1
emission maximum (in Cc1ccccc1): 510 nm

emission maximum (in C1CCCCC1): 645 nm
emission maximum (in CCOC(C)=O): 664 nm
SMILES: CC1=[N+]2C(=C(c3ccc(C(=O)c4ccccc4)cc3)c3ccc(C)n3[B-]2(F)F)C=C1c1cc2n(c1)[B-](F)(F)[N+]1=CC=CC1=C2c1c(C)cc(C)cc1C

emission maximum (in CC#N): 532 nm
emission maximum (in CCCCCC): 538 nm
emission maximum (in CCOC(C)=O): 532 nm
emission maximum (in CO): 531 nm
emission maximum (in ClCCl): 537 nm
SMILES: F[B-]1(F)n2c(Cl)ccc2C(c2c(Cl)cccc2Cl)=C2C=CC(NCc3ccccc3)=[N+]21

emission maximum (in ClCCl): 355 nm
SMILES: Cc1cc2ccccc2c2c1c1ccccc1n2C(=O)OC(C)(C)C
